Measurements: paper PMC4624772 (PLoS Pathogens, 2015)

Molecular target: T1, MshE (VC0405) (Vibrio cholerae, UniProt Q9KUV7)
T1 construct: gene VC_0405
Assay: biochemical

T1 sequence (Q9KUV7 1-575): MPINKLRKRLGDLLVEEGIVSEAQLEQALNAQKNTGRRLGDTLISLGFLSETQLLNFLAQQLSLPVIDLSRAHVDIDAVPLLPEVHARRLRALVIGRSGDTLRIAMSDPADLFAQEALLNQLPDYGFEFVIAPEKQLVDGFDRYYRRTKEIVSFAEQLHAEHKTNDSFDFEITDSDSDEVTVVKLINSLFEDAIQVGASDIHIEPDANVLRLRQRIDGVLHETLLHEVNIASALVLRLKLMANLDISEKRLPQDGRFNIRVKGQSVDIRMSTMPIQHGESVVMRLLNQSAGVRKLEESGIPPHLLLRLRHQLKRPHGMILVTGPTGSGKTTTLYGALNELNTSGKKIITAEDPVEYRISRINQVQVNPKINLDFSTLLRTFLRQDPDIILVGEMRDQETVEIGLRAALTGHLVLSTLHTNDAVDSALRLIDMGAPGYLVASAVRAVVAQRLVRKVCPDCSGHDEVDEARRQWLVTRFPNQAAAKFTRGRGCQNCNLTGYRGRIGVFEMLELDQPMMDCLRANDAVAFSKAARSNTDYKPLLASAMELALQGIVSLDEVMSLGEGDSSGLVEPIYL

For `Nc1nc2c(ncn2[C@@H]2O[C@@H]3CO[P@](=O)(O)O[C@H]4[C@@H](O)[C@H](n5cnc6c(=O)[nH]c(N)nc65)O[C@@H]4CO[P@](=O)(O)O[C@H]3[C@H]2O)c(=O)[nH]1` [c-di-GMP], the Kd was 1900 ± 400 nM.
